Data from ChEMBL document CHEMBL4321810, “Structural Characterization of Agonist Binding to an A3 Adenosine Receptor through Biomolecular Simulations and Mutagenesis Experiments” (J Med Chem, 2019).
Substitutions are numbered along the chain they refer to. Calls of active or inactive are those of the source.

Tests used:
[1] = tested on: T1, Adenosine receptor A3 (Homo sapiens), P0DMS8 [F168A]
T1 sequence (whole entry): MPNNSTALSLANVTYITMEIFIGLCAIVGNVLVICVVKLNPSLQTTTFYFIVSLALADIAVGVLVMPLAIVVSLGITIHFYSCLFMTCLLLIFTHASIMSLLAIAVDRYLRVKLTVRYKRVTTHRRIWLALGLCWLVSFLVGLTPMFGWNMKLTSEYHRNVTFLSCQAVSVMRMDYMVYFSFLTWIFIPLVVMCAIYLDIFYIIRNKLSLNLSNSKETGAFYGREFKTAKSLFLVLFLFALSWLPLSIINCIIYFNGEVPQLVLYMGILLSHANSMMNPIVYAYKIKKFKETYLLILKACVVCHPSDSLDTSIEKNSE

[2] = tested on: T2, Adenosine receptor A3 (Homo sapiens), P0DMS8 [N250A]
T2 sequence (whole entry): T1 sequence (whole entry) with A168F, N250A

[3] = tested on: T3, Adenosine receptor A3 (Homo sapiens), P0DMS8 [I268A]
T3 sequence (whole entry): T1 sequence (whole entry) with A168F, I268A

[4] = tested on: T4, Adenosine receptor A3 (Homo sapiens), P0DMS8 [H272A]
T4 sequence (whole entry): T1 sequence (whole entry) with A168F, H272A

[5] = tested on: T5, Adenosine receptor A3 (Homo sapiens), P0DMS8 [L246A]
T5 sequence (whole entry): T1 sequence (whole entry) with A168F, L246A

[6] = tested on: T6, Adenosine receptor A3 (Homo sapiens), P0DMS8 [S271A]
T6 sequence (whole entry): T1 sequence (whole entry) with A168F, S271A

Measured: pIC50

CNC(=O)[C@H]1O[C@@H](n2cnc3c(NCc4cccc(I)c4)ncnc32)[C@H](O)[C@@H]1O
inactive: [1] | [2] | Homo sapiens | [3] | [4] | [5] | [6]

CCNC(=O)[C@H]1O[C@@H](n2cnc3c(N)ncnc32)[C@H](O)[C@@H]1O
inactive: [1] | [2] | Homo sapiens | [3] | [4] | [5] | [6]
